Experimental data as given in patent publication US20140336135A1, “NOVEL USE OF RHODODENDRIN” (Catholic University Industry Academy Cooperation Foundation, priority 2013, published 2014).

Key:
TLR7 signaling = experiment: Effect on TLR7 signaling pathway in keratinocytes (Western blot, immunofluorescence); assay type: cell-based, human
Method: Keratinocytes were treated with imiquimod, and then TLR7 signaling in the cells was examined by Western blot analysis and immune fluorescence staining. The detailed experimental methods are as follows.
Primary keratinocytes collected from the foreskin of a healthy subject were cultured. Human keratinocytes were cultured in keratinocyte serum-free medium (K-SFM) supplemented with epidermal growth factor (EGF) and bovine pituitary extract (Gibco BRL, Rockville, Md.). When the cells reached to 70% confluency, the cells were washed twice with PBS and cultured in K-SFM for 24 hours. To induce the differentiation of the keratinocytes, 1.2 mM calcium was added to the cells which were then cultured for 1, 3, 7 and 14 days, respectively.
Western blot analysis was performed in the following manner. Serum-starved keratinocytes were treated with various concentrations of rhododendrin for 1 hour, and then stimulated by treatment with imiquimod for different time periods. The cell pellets were lysed in ice-cold RIPA buffer (Roche Applied Science, Indianapolis, Ind., USA) containing protease inhibitor cocktail at 4° C. for 30 minutes. Protein samples were isolated by SDS-PAGE (sodium dodecylsulfate-polyacrylamide gel electrophoresis) and analyzed by immunoblotting. Briefly, the protein on the SDS polyacrylamide gel was transferred to a nitrocellulose membrane (Amersham, UK). […] A signal was detected using X-ray film development or Image-Analyzer System (LAS-3000, Fujifilm, Japan) in a dark room.
In addition, the expression patterns of TLR7, NF-kB (a marker of TLR7) and caveolin (a marker of psoriasis) were analyzed by immunofluorescence in the following manner.
Primary keratinocytes (5×10^5 cells/well) were pre-treated with rhododendrin for 1 hour, and then stimulated with imiquimod for 1 hour. The signal of immunostained NF-kB p65 was analyzed by the method described in Y. Kim. et. al., Free Radical Biology and Medicine; 51(11): 1985-1995, 2011. […]

[1] = system: mice having psoriasis induced by imiquimod; experiment: Inhibition of hyperkeratinization in imiquimod psoriasis-induced mouse model (histology, qRT-PCR); assay type: in vivo, mice (C57BL/6)
Method: Tissues were excised from mice having psoriasis induced by imiquimod, and then the effect of rhododendrin on the inhibition of hyperkeratinization in the tissues was examined by histological analysis and qRT (quantitative real-time)-PCR analysis.
Specifically, in order to induce psoriasis by imiquimod, the hairs on the back of 8-week-old mice (C57BL/6, Central Animal Laboratory Inc.) were removed by using hair removal cream. The back of the mice was pre-treated daily with 20 mM rhododendrin before 1 hour, and then imiquimod (3.125 mg) was applied to the back at an one-day interval for 7 days. On the last day of application, the tissues were collected.
Histological examination of the mice skin was performed in the following manner. The mouse skin tissues were fixed in PBS containing 4% paraformaldehyde for 24 hours, washed with tap water, dehydrated with ethanol, and then embedded in paraffin to make a paraffin block. The paraffin block was cut with a microtome into 4 μm-thick sections, which were then placed on a glass slide and treated with xylene to remove wax (paraffin). Then, the tissue sections were dehydrated with ethanol and stained with hematoxylin-eosin (H&E). Histological analysis was performed using a fluorescence attached microscope (Olympus, Japan).
RNA isolation and qRT (quantitative real-time)-PCR analysis were performed in the following manner. Total RNAs were isolated from the tissues using an RNeasy Mini Kit (Qiagen, Valencia, Calif., USA) according to the manufacturer's instructions, and then synthesized into cDNA using QuantiTect Reverse Transcription Kit (Qiagen) according to the manufacturer's instructions. qRT-PCR was performed using Rotorgene™6000 (Corbett life Science) with KAPA™SYBR FAST q-PCR Master Mix(2×) universal. The relative amount of mRNAs was determined by […] method using GAPDH as an internal control. PCR was performed under the following conditions: 95° C. for 5 min; 35 cycles, each consisting of 96° C. for 20 sec, 60° C. for 20 sec and 72° C. for 20 sec; and one cycle at 72° C. for 5 min.

HaCaT cells [2] = experiment: ROS scavenging activity, ROS induced by TNF-α/IFN-γ (H2DCF-DA); assay type: cell-based, human
Method: HaCaT cells were seeded at a density of 3×10^5 cells/well in 6-well plates for 12 hours. Cells were washed with serum-free media, treated with 20 μm rhododendrin for 1 hour, and then stimulated with 10 ng/ml of TNF-α and 100 U/ml of […] for 3 hours. The cells were stabilized in Hanks' balanced salt solution (HBSS) for 30 minutes, stained with 10 μM 2′,7′-dichlorofluorescin diacetate (H2DCF-DA) at 37° C. for 30 minutes, and ROS signal was then analyzed with confocal microscopy with emission at 513 nm and excitation at 488 nm. Also, the fluorescence of the cells was measured with a microplate reader (Synergy, BIO TEK, US).

[3] = system: Human keratinocyte HaCaT cells; experiment: Inhibition of intracellular ROS induced by UV irradiation (H2DCF-DA); assay type: cell-based; details: 20 μM rhododendrin 1 hour, then 100 J/m^2 UV light
Method: Human keratinocyte HaCaT cells (obtained from professor N. Fusenig, Cancer Research, Germany) were placed in a 60-mm culture dish at a density of 5×10^5 cells (1×10^6 cells for a 100 mm culture dish), and then cultured in 10% FBS (fetal bovine serum)-containing DMEM (Dulbecco's modified Eagle's medium) for 24 hours.
After culture, the cells were treated with 20 μM rhododendrin for 1 hour, and then washed three times with PBS (phosphate buffered saline). To induce ROS (reactive oxygen species), the cells were irradiated with 100 J/m^2 of UV light from a UV lamp (FSX 24 T12/UVB/HO, Pansol™ USA). Immediately after UV irradiation, the cells were washed with PBS and cultured for 4 hours in 1% FBS-containing DMEM medium supplemented with […]. Then, the cells were treated with 25 μM DCFH-DA (2,7-dichlorofliuorescin diacetate) in HBSS (Hank's balanced salt solution, BioWhittaker, CAMBREX, USA) buffer for 30 minutes, and then washed three times with PBS. Next, the measurement of ROS production in the cells by H2DCF-DA staining was performed in the same manner as described in Example 3-1.

HaCaT cells [4] = experiment: Cytotoxicity of rhododendrin, MTT cell viability; assay type: cell-based, human; details: various concentrations, 24 hours
Method: HaCaT cells were purchased from CLS Cell Line Service GmbH (Eppelheim, Germany). HaCaT cells were seeded at a density of 2×10^4 cells/well in 96-well plates. After a 12 hours incubation, the cells were incubated with various concentrations of rhododendrin for 24 hours. Then, cells were incubated with 3-(4,5-dimethylthiaol-2-yl)-2,5-diphenyltetrazolium bromide (MTT) reagent for 2-4 hours at 37° C. To calculate cell viability, MTT signals were quantified with a microplate reader (BioTek, Winooski, Vt., USA) at wavelength of 540 nm.

With `C[C@H](CCc1ccc(O)cc1)O[C@@H]1O[C@H](CO)[C@@H](O)[C@H](O)[C@H]1O` [rhododendrin, Rhododendrin] the “activity of caveolin (marker of psoriasis)” value (TLR7 signaling; keratinocytes, imiquimod and 20 μM rhododendrin, fluorescence staining, FIG. 14) was “protected”, the “activity of TLR7 (down signaling)” value (TLR7 signaling; primary keratinocytes pre-treated with rhododendrin 1 hour, then imiquimod, FIGS. 12 and 13) was “inhibited” and the “activity of NF-kB (marker of TLR7)” value (TLR7 signaling; primary keratinocytes pre-treated with rhododendrin 1 hour, then imiquimod, phospho-NF-kB p65 Western blot and p65 immunostaining, FIGS. 12 and 13) was “also inhibited”. The “induction of psoriasis (visual observation of the back tissue)” value ([1]; 20 mM rhododendrin on the back daily 1 hour before imiquimod (3.125 mg), 7 days, FIGS. 6 to 8) was “significantly decreased”, the “thickness of the epidermal and dermal layers” value ([1]; 20 mM rhododendrin topical, imiquimod 7 days, H&E histology, FIGS. 7, 8) was “a decrease in the thickness of the epidermal and dermal layers” and the “expression of TLR (mRNA, qRT-PCR) in skin tissue” value ([1]; 20 mM rhododendrin topical, imiquimod 7 days, versus control group, FIG. 9) was “significantly lower”. For the same compound, the “production of DCF-fluorescence (microplate reader)” value (HaCaT cells [2]; 20 μM rhododendrin, then TNF-α/IFN-γ, FIG. 3) was “decreased to that in the control group not treated with TNF-α/IFN-γ”, the “ROS signal (H2DCF-DA fluorescence) by confocal microscopy” value (HaCaT cells [2]; 20 μm rhododendrin 1 hour, then 10 ng/ml TNF-α and 100 U/ml IFN-γ 3 hours, FIG. 2) was “no fluorescence was detected” and the “ROS fluorescence by confocal microscopy” value ([3]; FIG. 4) was “only very minute fluorescence spots were found”. For the same compound, the “amount of DCF-fluorescence (microplate reader)” value ([3]; versus group not treated, FIG. 5) was “significantly lower” and the “cytotoxicity (cell viability, MTT)” value (HaCaT cells [4]) was “no cytotoxicity”.
